In US20230121926A1, “METHODS FOR TISSUE REGENERATION AND KITS THEREFOR” (THE BOARD OF TRUSTEES OF THE LELAND STANFORD JUNIOR …, priority 2020, published 2023):

What was measured:
[1] = tested on: deep partial-thickness excisional wounds; assay: Porcine deep partial-thickness excisional wound model; type: in vivo, red Duroc pigs
Experimental: Porcine deep partial-thickness excisional wound model: Prior to operation, animals were administered oral amoxicillin 10 mg/kg for 24 hours. General anesthesia was administered by Veterinary Services personnel and was established with intramuscular telazol 6-8 mg/kg, administered once as a pre-anesthetic. Animals were then intubated using an endotracheal tube and maintained on 1.5-3% of inhaled isoflurane throughout the procedure. The hair on the back was clipped and skin was cleansed initially with Betadine© solution following by a 70% alcohol rinse. Excisional wounds were created with a standard electric Zimmer dermatome (Zimmer Biomet, Warsaw, Ind.). Up to eight wounds, approximately 5 cm×5 cm in size, were created on each lateral flank, with 3-5 cm intervals between wounds (FIG. 1A). Multiple dermatome passes were performed to create deep partial-thickness wounds of uniform 0.07 inch depth. The wounds were randomly assigned to receive either FAKI hydrogel (W_IF), blank hydrogel (‘placebo’, W_H), or no hydrogel (wounded control, W) (n=6-9 wounds per condition). Animals were given oral amoxicillin 10 mg/kg post-operatively twice a day for 5 days total. Wound dressings, including FAKI hydrogel patches, were changed every other day for the first three weeks after initial injury until POD 21 (FIG. 1C). Thereafter, dressings were changed twice per week until POD 90. Animals were subject to short-term sedation for each dressing change. The actual dose delivered to the wound was tested on porcine fresh wounds (red Duroc pigs). In a time-dependent study, the amount of VS-6062 detected at approximately 0.5 mm wound depth over 24 hours ranged from 30-100 microG/g tissue by weight. The amount of VS-6062 detected beyond 1 mm wound depth was less than 5 microG/g tissue. Wound closure, visual scar assessment, and viscoelastic analyses. Wounds were monitored photographically at each dressing change. Days to wound closure, defined as complete re-epithelialization without open wound area, were determined for each wound based on gross photographic assessment. Quantification of scar metrics were performed using a Visual Analog Scale (VAS) for 5 components (vascularity, pigmentation, observer comfort, acceptability, and contour) by a panel of four blinded scar experts. Total scores are calculated as a composite of all 5 scores; lower scores indicate improved scar appearance. A Cutometer (Dual MPA 580, Courage+Khazaka Electronic, Köln, Germany) was used to evaluate the firmness and elasticity of the healing wounds at POD 60. The cutometer measures the vertical deformation of the skin surface by applying a negative pressure (suction) through a small circular diameter (2 mm probe). Cutometer assessment is the gold standard to measure viscoelasticity in human patients. Deformation (suction) for two seconds followed by two seconds of relaxation (no suction) is applied for three cycles. The elasticity ratio (ability for tissue to return back to original setpoint) was measured during the relaxation period (R2 metric). Histological and immunofluorescent staining. […] Masson's Trichrome staining and Picrosirius Red staining were performed. Picrosirius Red-stained images were captured using polarized light microscopy (Leica DM5000 B upright microscope). Collagen fibers were also visualized using Second Harmonic Generation (SHG) on a Leica SP5 upright confocal multi-photon microscope using a […]. SHG images were captured with an excitation wavelength of 860 nm, a pulse length of approximately 100 fs, and an emission filter centered at 445 nm with a 20-nm bandwidth. Forward SHG was used to image fibroblasts and backward SHG was used to image in vivo tissue sections. Analysis of fiber alignment was performed on Picrosirius Red-stained images at 40× magnification using the custom software MatFiber, an intensity-gradient-detection algorithm for analysis of overall alignment of collagen fibers and stress fibers from multiple samples. […]

[2] = Systemic penetration of topically applied FAKI (mass spectrometry of peripheral blood); type: in vivo, pig; details: topical, approximately 7-10% of total body surface area, three pigs
Experimental: FIG. 6B. Acute, systemic, and implantation toxicity testing of FAKI hydrogel in the porcine model. Mass spectrometry of peripheral blood samples of FAKI-treated pigs was performed to assess systemic penetration of topically applied FAKI covering approximately 7-10% of the total body surface area relative to serum FAKI levels after oral administration of FAKI from a human study. Serum FAKI concentrations via localized delivery were negligible in three independent experiments collected from three different pigs.

dermal fibroblasts = assay: Fibroblast-populated 3D collagen scaffold under strain (alignment, contraction); type: cell-based, human
Experimental: Mechanotransduction shifts human fibroblast heterogeneity. […] To confirm the translational potential of the results in the porcine model on the role of mechanotransduction in the fibrotic response, dermal fibroblasts isolated from human surgical patients were then evaluated. Cells were seeded within 3D collagen scaffolds at densities of 2.0 mg/mL collagen and 200,000 cells/mL (FIG. 2A). To artificially increase tissue forces, the mechanical strain applied to fibroblasts was precisely manipulated as described in Chen, K. et al, “Role of boundary conditions in determining cell alignment in response to stretch”, PNAS 115, 986-991, doi:10.1073/pnas.1715059115 (2018), the entire disclosure of which is hereby incorporated by reference in its entirety, and shown in FIG. 2B and FIG. 9A. […] The efficacy of this in vitro system to mimic the fibrogenic phenotype observed in healing wounds and resultant scar was confirmed. […] Fibroblast reorganization of ECM drives collagen remodeling and development of long, aligned collagen fibers characteristic of fibrosis. […]
Fibroblast-populated 3D collagen scaffold experiments. […] Nine Titanium (IV) oxide paint dots (Sigma-Aldrich) were applied on the surface of the central region of the gel (boxes in FIG. 9A) to track and quantify the imposed strains. […]

[3] = Dose of VS-6062 delivered to porcine fresh wounds (tissue level by wound depth); type: in vivo, red Duroc pigs
Experimental: Porcine deep partial-thickness excisional wound model: Prior to operation, animals were administered oral amoxicillin 10 mg/kg for 24 hours. General anesthesia was administered by Veterinary Services personnel and was established with intramuscular telazol 6-8 mg/kg, administered once as a pre-anesthetic. Animals were then intubated using an endotracheal tube and maintained on 1.5-3% of inhaled isoflurane throughout the procedure. The hair on the back was clipped and skin was cleansed initially with Betadine© solution following by a 70% alcohol rinse. Excisional wounds were created with a standard electric Zimmer dermatome (Zimmer Biomet, Warsaw, Ind.). Up to eight wounds, approximately 5 cm×5 cm in size, were created on each lateral flank, with 3-5 cm intervals between wounds (FIG. 1A). Multiple dermatome passes were performed to create deep partial-thickness wounds of uniform 0.07 inch depth. The wounds were randomly assigned to receive either FAKI hydrogel (W_IF), blank hydrogel (‘placebo’, W_H), or no hydrogel (wounded control, W) (n=6-9 wounds per condition). […] In a time-dependent study, the amount of VS-6062 detected at approximately 0.5 mm wound depth over 24 hours ranged from 30-100 microG/g tissue by weight. The amount of VS-6062 detected beyond 1 mm wound depth was less than 5 microG/g tissue.

human dermal fibroblasts = assay: scRNA-seq of strained human dermal fibroblasts in 3D collagen scaffolds; type: cell-based
Description: Using this experimental system, in vivo dermal strain patterns were mimicked, imposing biaxial strain upon the fibroblasts, while also attenuating mechanotransduction in a subset of samples. The collagen scaffolds were enzymatically digested to obtain cellular suspensions of fibroblasts, which were then processed for scRNA-seq, as shown in FIGS. 2A and 2C. All single cell data were initially analyzed in a manner blinded to phenotype of origin. Following log-normalization, pooled data were subjected to semi-supervised Louvain-based clustering and embedded into UMAP-space (Seurat). Eight transcriptionally distinct subpopulations (cluster 0 to cluster 7) were identified among cells from the pooled data superset, as shown in FIG. 2D. When unblinded, considerable permissiveness among clusters were found across both phenotypes and biological replicates, consistent with the known heterogeneity among human dermal fibroblasts (FIG. 2D).
Fibroblast-populated 3D collagen scaffold experiments. Dermal fibroblasts were isolated from both porcine and human skin samples and cultured separately. Porcine skin was obtained from the unwounded (normal skin) areas of a euthanized red duroc pig. Human skin samples were obtained under the approved IRB (#54225) and collected from three surgical procedures; a breast mastectomy, an abdominoplasty, and a thighplasty (n=3 patients). Fibroblasts were isolated by mechanical and enzymatic digestion and cultured under standard conditions until passage 3. The primary fibroblast cultures were then used to create fibroblast-populated collagen hydrogels at final concentration of 200 k cells/mL and 2 mg/mL collagen (PureCol, Advanced Biomatrix, San Diego, Calif.), following protocols as described in Chen, K. et al, “Role of boundary conditions in determining cell alignment in response to stretch”, PNAS 115, 986-991, doi:10.1073/pnas.1715059115 (2018), the entire disclosure of which is hereby incorporated by reference in its entirety. In brief, collagen scaffolds were formulated in a cruciform shape in petri dishes with a PDMS coating (˜4 mm) on the bottom (FIG. 2B). Pins were pushed through the hydrogel cruciform arms to constrain the scaffolds in both directions for a 24h pre-culture period before being subjected to either no strain, 10% equibiaxial strain, or strain+FAKI treatment for an additional 48 hours (FIGS. 2A-2B, FIG. 9A). FAKI treatment was administered by adding 20 mM FAKI in DMSO into the culture media of the scaffolds to achieve a final concentration of 10 micromolar FAKI for 48 hours. Strain was imposed by removing the anchoring pins, manually extending the hydrogel cruciform arms, and pushing the pins back to hold the arms in the new, extended position. Nine Titanium (IV) oxide paint dots (Sigma-Aldrich) were applied on the surface of the central region of the gel (boxes in FIG. 9A) to track and quantify the imposed strains. A digital camera was used to image the markers before and after strain. Photographs of marker position were used to compute a single homogenous deformation gradient tensor F that provided the least-squares best fit mapping of the 9 marker positions from the undeformed to deformed positions by solving the overdetermined matrix equation: […]
Single cell barcoding, library preparation, and single cell RNA sequencing. After two days of increased (induction of strain) or inhibited (induction of strain+FAKI) mechanotransduction, collagen scaffolds were micro-dissected and enzymatically digested to obtain cellular suspensions of human fibroblasts for droplet-based microfluidic single cell RNA sequencing (scRNA-seq) using the 10× Chromium Single Cell platform (FIG. 2C) (Single Cell 3′ v3, 10× Genomics, USA). A droplet of the cell suspensions, reverse transcription master mix, and partitioning oil was loaded onto a single cell chip and processed on the Chromium Controller. […]

[4] = POD 60, versus untreated wounds
[5] = porcine wound tissue, treated vs untreated
[6] = 10% strain, 10 micromolar FAKI, 48 hours

CN(c1ncccc1CNc1nc(Nc2ccc3c(c2)CC(=O)N3)ncc1C(F)(F)F)S(C)(=O)=O [VS-6062]
regeneration of secondary structures (hair follicles, cutaneous glands) ([1]; Masson's Trichrome, POD 90 and POD 180): regrowth of hair follicles and other cutaneous glands | wound elasticity (cutometer) [1, 4]: increased elasticity | wound firmness (cutometer) [1, 4]: decreased firmness | intradermal adipocytes (Perilipin A staining) ([1]; POD 90, deep dermal layer): regeneration of Perilipin A-positive intradermal adipocytes | healing earlier than wounds treated with standard dressings or empty hydrogels ([1]; controls healed after POD 24): more than 10 days | gross appearance of the treated wounds ([1]; difference in scarring evident as early as POD 40): normal appearing skin | collagen structure of healed wounds (Picrosirius Red) ([1]; pig, in vivo): basket weave-like collagen structure characteristic to unwounded porcine skin | protein expression of Collagen I (immunofluorescence) [1, 5]: decreased | protein expression of Collagen III (immunofluorescence) [1, 5]: decreased | protein expression of MMP1 (immunofluorescence) [1, 5]: increased | protein expression of MMP3 (immunofluorescence) [1, 5]: increased | protein expression of alpha SMA (immunofluorescence) [1, 5]: decreased | time at which wounds were fully healed ([1]; sustained release hydrogel scaffold, 5x5 cm wounds): 14±2.3 postoperative day (POD) | CT-FIRE fiber count ([1]; trend): return number of fibers closer to unwounded skin | serum FAKI concentrations via localized delivery [2]: negligible | fibroblast alignment under uniaxial strain (dermal fibroblasts; 10% uniaxial strain, 10 micromolar FAKI): aligned multi-directionally | contraction assay: fibroblast remodeling of the ECM environment (dermal fibroblasts; collagen scaffolds): hinders the fibroblasts from remodeling (R) the ECM environment | amount of VS-6062 detected in wound tissue ([3]; approximately 0.5 mm wound depth, over 24 hours): 30-100 microG/g tissue by weight | amount of VS-6062 detected in wound tissue ([3]; beyond 1 mm wound depth): less than 5 microG/g tissue | expression of AIMP3 (human dermal fibroblasts; [6]): increased | expression of MMP1 (human dermal fibroblasts; [6]): increased | expression of Mmp10 (human dermal fibroblasts; [6]): significantly upregulated | transcription of COL1A1 (human dermal fibroblasts; [6]): strongly reduced | transcription of COL3A1 (human dermal fibroblasts; [6]): strongly reduced | strain-induced pro-fibrotic, myofibroblast and mechanotransduction gene expression (ACTA2, PDGFRA, RUNX1, ZEB2, MAPK1, PI3KR1, EGFR, RAC1, YAP1) (human dermal fibroblasts; strained fibroblasts with FAKI): abrogated nearly all of these fibrotic signaling changes
